Measured values as given in patent publication US9833497B2, “Human originated EGF domain proteins and use of the same” (CHENGDU SOURCEBIO LIMITED-LIABILITY COMPANY, priority 2013, dated 2017).

Tested on: Proteus mirabilis
Test: MIC against Gram-negative bacteria: Proteus mirabilis
Format: cell-based
Details: P. mirabilis; 10 h cultivation at 37° C.; 5×10^5 CFU/mL
How it was run: (§1)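 First, colonies from LB agar were grown in LB at 37° C, 185 rpm, to McFarland turbidity 0.5, then centrifuged and resuspended in fresh LB. Next, wells received 5×10^5 CFU/mL bacteria plus two-fold serially diluted EGF domain protein (triplicate). Finally, plates were shaken at 37° C and the no-growth concentration taken as MIC.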

Substance	MIC (μg/mL) P. mirabilis
PRT757 (RINYCALNKPGCEHECVNMEESYYCRCHRGYTLDPNGKTCS; listed as Homo sapiens)	12.5 µg/mL
PRT748 (YTASCQPWSCSGHGECVEIINNYTCNCDVGYYGPQCQ; listed as Homo sapiens)	50 µg/mL
PRT813 (FGVNCSSSCSCGGAPCHGVTGQCRCPPGRTGEDCE; listed as Homo sapiens)	25 µg/mL

Tested on: Aeromonas hydrophila
Test: MIC against Gram-negative bacteria: Aeromonas hydrophila
Format: cell-based
Details: A. hydrophila; 10 h cultivation at 37° C.; 5×10^5 CFU/mL
How it was run: as §1

Substance	MIC (μg/mL) A. hydrophila
PRT757 (RINYCALNKPGCEHECVNMEESYYCRCHRGYTLDPNGKTCS; listed as Homo sapiens)	50 µg/mL
PRT748 (YTASCQPWSCSGHGECVEIINNYTCNCDVGYYGPQCQ; listed as Homo sapiens)	12.5 µg/mL
PRT813 (FGVNCSSSCSCGGAPCHGVTGQCRCPPGRTGEDCE; listed as Homo sapiens)	50 µg/mL

Tested on: E. coli DH5α
Test: Antibacterial activity: MIC and growth curve against E. coli DH5α in 96-well plate
Format: cell-based
Details: minimal inhibitory concentration against E. coli DH5α; 96-well plate, 5×10^5 CFU/mL, 37° C., judged after 8 h
How it was run: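 MIC taken as lowest protein level with no bacterial growth, tracked by A600 every 30 min during 37 °C, 175 rpm culture. Two-fold protein series 50-12.5 μg/mL final, triplicate wells, against 5×10^5 CFU/mL of LB-washed mid-log cells.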

Substance	MIC
PRT757 (RINYCALNKPGCEHECVNMEESYYCRCHRGYTLDPNGKTCS; listed as Homo sapiens)	50 µg/mL
PRT748 (YTASCQPWSCSGHGECVEIINNYTCNCDVGYYGPQCQ; listed as Homo sapiens)	50 µg/mL
PRT813 (FGVNCSSSCSCGGAPCHGVTGQCRCPPGRTGEDCE; listed as Homo sapiens)	50 µg/mL

Tested on: Citrobacter diversus
Test: MIC against Gram-negative bacteria: Citrobacter diversus
Format: cell-based
Details: C. diversus; 10 h cultivation at 37° C.; 5×10^5 CFU/mL
How it was run: as §1

Substance	MIC (μg/mL) C. diversus
PRT757 (RINYCALNKPGCEHECVNMEESYYCRCHRGYTLDPNGKTCS; listed as Homo sapiens)	12.5 µg/mL
PRT748 (YTASCQPWSCSGHGECVEIINNYTCNCDVGYYGPQCQ; listed as Homo sapiens)	50 µg/mL
PRT813 (FGVNCSSSCSCGGAPCHGVTGQCRCPPGRTGEDCE; listed as Homo sapiens)	25 µg/mL

Tested on: Enterobacter cloacae
Test: MIC against Gram-negative bacteria: Enterobacter cloacae
Format: cell-based
Details: E. cloacae; 10 h cultivation at 37° C.; 5×10^5 CFU/mL
How it was run: as §1

Substance	MIC (μg/mL) E. cloacae
PRT757 (RINYCALNKPGCEHECVNMEESYYCRCHRGYTLDPNGKTCS; listed as Homo sapiens)	25 µg/mL
PRT748 (YTASCQPWSCSGHGECVEIINNYTCNCDVGYYGPQCQ; listed as Homo sapiens)	50 µg/mL
PRT813 (FGVNCSSSCSCGGAPCHGVTGQCRCPPGRTGEDCE; listed as Homo sapiens)	25 µg/mL

Tested on: Proteus vulgaris
Test: MIC against Gram-negative bacteria: Proteus vulgaris
Format: cell-based
Details: P. vulgaris; 10 h cultivation at 37° C.; 5×10^5 CFU/mL
How it was run: as §1

Substance	MIC (μg/mL) P. vulgaris
PRT757 (RINYCALNKPGCEHECVNMEESYYCRCHRGYTLDPNGKTCS; listed as Homo sapiens)	25 µg/mL
PRT748 (YTASCQPWSCSGHGECVEIINNYTCNCDVGYYGPQCQ; listed as Homo sapiens)	12.5 µg/mL
PRT813 (FGVNCSSSCSCGGAPCHGVTGQCRCPPGRTGEDCE; listed as Homo sapiens)	50 µg/mL

Tested on: Serratia marcescens
Test: MIC against Gram-negative bacteria: Serratia marcescens
Format: cell-based
Details: S. marcescens; 10 h cultivation at 37° C.; 5×10^5 CFU/mL
How it was run: as §1

Substance	MIC (μg/mL) S. marcescens
PRT757 (RINYCALNKPGCEHECVNMEESYYCRCHRGYTLDPNGKTCS; listed as Homo sapiens)	50 µg/mL
PRT748 (YTASCQPWSCSGHGECVEIINNYTCNCDVGYYGPQCQ; listed as Homo sapiens)	25 µg/mL
PRT813 (FGVNCSSSCSCGGAPCHGVTGQCRCPPGRTGEDCE; listed as Homo sapiens)	12.5 µg/mL

Tested on: Klebsiella pneumonia
Test: MIC against Gram-negative bacteria: Klebsiella pneumonia
Format: cell-based
Details: K. pneumonia; 10 h cultivation at 37° C.; 5×10^5 CFU/mL
How it was run: as §1

Substance	MIC (μg/mL) K. pneumonia
PRT757 (RINYCALNKPGCEHECVNMEESYYCRCHRGYTLDPNGKTCS; listed as Homo sapiens)	12.5 µg/mL
PRT748 (YTASCQPWSCSGHGECVEIINNYTCNCDVGYYGPQCQ; listed as Homo sapiens)	25 µg/mL
PRT813 (FGVNCSSSCSCGGAPCHGVTGQCRCPPGRTGEDCE; listed as Homo sapiens)	50 µg/mL

Tested on: Pseudomonas aeruginosa
Test: MIC against Gram-negative bacteria: Pseudomonas aeruginosa
Format: cell-based
Details: P. aeruginosa; 10 h cultivation at 37° C.; 5×10^5 CFU/mL
How it was run: as §1

Substance	MIC (μg/mL) P. aeruginosa
PRT757 (RINYCALNKPGCEHECVNMEESYYCRCHRGYTLDPNGKTCS; listed as Homo sapiens)	50 µg/mL
PRT748 (YTASCQPWSCSGHGECVEIINNYTCNCDVGYYGPQCQ; listed as Homo sapiens)	12.5 µg/mL
PRT813 (FGVNCSSSCSCGGAPCHGVTGQCRCPPGRTGEDCE; listed as Homo sapiens)	50 µg/mL

Tested on: E. coli BL21
Test: MIC against Gram-negative bacteria: E. coli BL21
Format: cell-based
Details: E. coli BL21; 10 h cultivation at 37° C.; 5×10^5 CFU/mL
How it was run: as §1

Substance	MIC (μg/mL) E. coli BL21
PRT757 (RINYCALNKPGCEHECVNMEESYYCRCHRGYTLDPNGKTCS; listed as Homo sapiens)	12.5 µg/mL
PRT748 (YTASCQPWSCSGHGECVEIINNYTCNCDVGYYGPQCQ; listed as Homo sapiens)	25 µg/mL
PRT813 (FGVNCSSSCSCGGAPCHGVTGQCRCPPGRTGEDCE; listed as Homo sapiens)	50 µg/mL

Tested on: Moraxella catarrhalis
Test: MIC against Gram-negative bacteria: Moraxella catarrhalis
Format: cell-based
Details: M. catarrhalis; 10 h cultivation at 37° C.; 5×10^5 CFU/mL
How it was run: as §1

Substance	MIC (μg/mL) M. catarrhalis
PRT757 (RINYCALNKPGCEHECVNMEESYYCRCHRGYTLDPNGKTCS; listed as Homo sapiens)	50 µg/mL
PRT748 (YTASCQPWSCSGHGECVEIINNYTCNCDVGYYGPQCQ; listed as Homo sapiens)	12.5 µg/mL
PRT813 (FGVNCSSSCSCGGAPCHGVTGQCRCPPGRTGEDCE; listed as Homo sapiens)	25 µg/mL
